From publication PMC7831021, “Computational Evolution of Beta-2-Microglobulin Binding Peptides for Nanopatterned Surface Sensors” (International Journal of Molecular Sciences, 2021)
Where a SMILES comes first, the peptide text is derived from it. Bridges are numbered along the chain shown (N, C = ends).

Experiments:
[1] = molecular target: T1, beta-2-Microglobulin (β2m) (Homo sapiens, UniProt P61769); test: Surface plasmon resonance (SPR) binding of peptides to immobilized β2m
T1 construct: purchased Sigma Aldrich (Germany)
Experimental: The interaction between the protein and computationally optimized peptides was measured using the BIAcore 3000 (GE Healthcare, Milano, Italy). β2m was immobilized at a concentration of 100 μg/mL in 10 mM acetate buffer pH 5 (flow rate 5 μL/min, time injection 7 min) on a CM5 Biacore sensor chip, using EDC/NHS chemistry following the manufacturer’s instructions. Residual reactive groups were deactivated by treatment with 1 M ethanolamine hydrochloride, pH 8.5. The reference channel was activated with EDC/NHS and deactivated with ethanolamine. The binding assays were carried out at 20 μL/min at 25 °C, with 4.5 min contact-time. Peptides were diluted in the HBS running buffer (10 mM Hepes, 150 mM NaCl, 3 mM EDTA, pH 7.4). Analyte injections were performed at the indicated concentrations. The sensor surface was regenerated by using 10mM NaOH for 1 min. The association phase (kon) was followed for 250 s, whereas the dissociation phase (koff) was followed for 300 s. The instrument BIAevaluation analysis package (version 4.1, GE Healthcare, Milano, Italy) was used to subtract the signal of the reference channel.

[2] = molecular target: T1, beta-2-Microglobulin (β2m); test: AFM differential height β2m binding (recognition) assay on dsDNA–peptide nanopatches; details: 5 and 1.25 mg/mL β2m
Experimental: After the nanografting process, the sample was thoroughly rinsed with 1M NaCl, TE1X buffer (DNA-free buffer), followed by a hybridization procedure with 200 nM of ssDNA–peptide conjugates solution in 1 M NaCl, Te1X at pH 7.2 and the hybridization process took place at 37 °C for 1 h. This was repeated for different concentrations of the ssDNA–pep381 so as to obtain the plots in Figure 7. Next, the sample was copiously rinsed with 1M NaCl, TE1X buffer (DNA-free buffer). This was to remove any un-bound molecules and other excess molecules that were not part of the hybridization. At the end of hybridization process before β2m binding assays, we performed AFM topographic imaging at low force (~0.2 nN) in contact mode and acquired AFM micrographs of all the nanografted nanoassemblages that had undergone hybridization. This imaging section allowed us to compare the AFM micrographs of ssDNA nanopatches to the same after hybridization with ssDNA–peptide conjugates and measure their respective relative heights.
The dsDNA–peptide nanoassemblages were incubated with the known concentration of β2m solution for a period of 1 h at 25 °C. […] Next, we measured the relative height of dsDNA–peptide assemblage after the binding assay using the section tool in Igor Pro 6.3A software. […]

| kon ([1]; BIAcore 3000, HBS pH 7.4, 25 °C, association followed for 250 s, χ^2 = 4.5) | koff ([1]; BIAcore 3000, HBS pH 7.4, 25 °C, dissociation followed for 300 s, χ^2 = 4.5) | SPR affinity, in words ([1]; SPR, 1:1 Langmuir) | recognition of respective binding sites on β2m, in words [2] | Compound |
| --- | --- | --- | --- | --- |
| 15 M⁻¹ s⁻¹ | 0.00449 s⁻¹ | micromolar KD estimated values |  | C[C@@H]1NC(=O)[C@H]([C@@H](C)O)NC(=O)[C@H](CCC(=O)O)NC(=O)[C@H](Cc2ccccc2)NC(=O)[C@@H](N)CSSC[C@@H](C(=O)O)NC(=O)[C@H](Cc2c[nH]c3ccccc23)NC(=O)[C@H](CCC(=O)O)NC(=O)[C@H](CC(N)=O)NC(=O)[C@H](CCC(N)=O)NC(=O)[C@H](CCCNC(=N)N)NC(=O)[C@H](Cc2c[nH]c3ccccc23)NC1=O [pep331] (H-CFETAWRQNEWC-OH; disulfide 1-12) |
|  |  |  | relatively high sensitivity | [CRRYSHQHYRHC] (disulfide) [pep381] |
